Reference: patent US20040253656A1, “Method for measuring inositol triphosphate” (priority 2003, published 2004)

How the values were obtained:
PLCδ1/PH domain = biological target: T1, PLCδ1/PH domain (Homo sapiens, UniProt P51178); conditions: Lemmon & Ferguson (2001), read-out: affinity for IP3; cited from earlier work
T1 sequence (P51178 21-130 limits assumed): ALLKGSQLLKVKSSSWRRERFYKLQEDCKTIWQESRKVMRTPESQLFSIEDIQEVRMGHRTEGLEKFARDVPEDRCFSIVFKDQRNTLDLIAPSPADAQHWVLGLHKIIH

CHOM1 cells = test: Cellular assay: IP3 levels in CHOM1 cells after carbachol, measured by scintillation proximity assay; type: cell-based; conditions: 20 mM LiCl, Carbachol 0.01 mM to 100 mM, 1 minute, FIG. 3
Protocol: Standard curves were generated, by displacing labelled IP3, using a range of known concentrations of unlabelled IP3. Reactions were conducted in 96 well Corning NBS microplates in a total volume of […]. The assays were carried out using 10 mMTris/[…] pH 7.0 containing 400 ng of the biotinylated GST-tagged PLC, protein, 10 nCi [^3H] IP3 (spec activity 23.0 Ci/mmol, Amersham), and 1 mg of streptavidin coated PVT beads. Plates were incubated on ice for 2 hours and the plates then read using a Microbeta microplate scintillation counter. Standard curves were also run in the presence of dodecyl trimethyl ammonium bromide (DTAB; lysis reagent 1) and alpha-cyclodextrin (lysis reagent 2) at final concentrations of 0.3% lysis solution 1 and 2% lysis reagent 2 (FIG. 2).
Cells (CHOM1; 2×10^5) were seeded onto a 24 well tissue culture plate and grown overnight at 37° C., 95/5% (air/CO2). Following overnight incubation, media were aspirated and the cells were washed 1× with PBS (phosphate buffered saline). Fresh media were added containing 20 mM LiCl (final concentration of lithium chloride) and the cells were incubated for 30 minutes at 37° C. in a humidified atmosphere (95/5%, air/CO2). […] The plate was incubated on ice for approximately 16 hours and the plate counted using a Microbeta microplate scintillation counter at 1 minute/well.

O=P(O)(O)O[C@@H]1[C@H](O)[C@H](O)[C@@H](OP(=O)(O)O)[C@H](OP(=O)(O)O)[C@H]1O [IP3, Inositol 1,4,5-trisphosphate]
Kd (PLCδ1/PH domain): 200 nM

C[N+](C)(C)CCOC(N)=O [carbachol, Carbachol]
effect on cellular levels of IP3 (CHOM1 cells): stimulatory effect
